# In US4434788A, “Enhancer of anti-tumor effect” (Yamasa Shoyu Kabushiki Kaisha, priority 1980, dated 1984):
# Where two headings read alike, the source gives them in different places.
# Assays:
# [1] = Plating efficiency of stationary-phase HA-1 cells given enhancer immediately after 1,000 R X-ray (inhibition of PLDR); type: cell-based, Chinese hamster; settings: chinese hamster, ha-1 cells, no irradiation, control 51, read-out: Plating efficiency, treated only with enhancer (after 7 hours)
# Procedure: (§1) (1) Cells under stationary phase, prepared by planting 2×10^5 cells/well of Chinese hamster-HA-1 cells in a multiwell dish and exchanging cultural medium every day starting on the third day and thereafter were irradiated with 1,000 R of X-rays. Immediately after radiation, 3'-dUrd, and 3'-dGuo in HANKs' balanced salt solution were administered. Then, after elapse of various times, the cells were taken off with trypsin, and a suitable number of cells were transferred into petri dishes for testing colony forming ability and plating efficiencies. The percentages of survival were calculated with corrections by the plating efficiencies with the pharmaceutical agents alone.
# [2] = test system: Chinese hamster-HA-1 cells; assay: as above; type: cell-based; settings: for Plating efficiency after 4 hours: control 2.1; for Plating efficiency after 7 hours: control 3.3
# Procedure: as §1
# EMT-6 tumors [3] = assay: Radiosensitizing effect on EMT-6 tumor in mouse, 1500 rad, tumor size and cure; type: in vivo, BALB/c-strain female mice
# EMT-6 tumors [4] = assay: Radiosensitizing effect on EMT-6 tumor in mouse, cure percentage and TCD50; type: in vivo, BALB/c-strain female mice; settings: 100 mg/kg i.p. after irradiation; for Cure number/Number treated / Cure percentage: >90 days
# Procedure: EMT-6 tumor cells (2×10^5) were inoculated intradermally into the right thighs of BALB/c-strain female mice (8 weeks old). When the tumor sizes reached 5.5 to 8.0 mm after inoculation of the tumor cells, irradiation was locally carried out with 1,000 rad to 2,700 rad of 32 MeV electron beam under no anesthesia, and thereafter 3'-dAdo and 3'-dGuo, each dissolved in physiological saline solution, were administered intraperitoneally in a dose of 100 mg/kg. After the treatments, observation was continued for longer than 90 days, and the cure percentages were determined for comparison with the control group. [formula]
# (2) TCD50 =50% Tumor control dose
# EMT-6 tumors [5] = assay: Enhancement of the effect of anti-tumor agents on EMT-6 tumor in mouse; type: in vivo, BALB/c-strain mice
# Procedure: (1) EMT-6 tumor cells (1×10^6) were inoculated intradermally into the right thighs of BALB/c-strain mice (7 weeks old). On the 10th day after inoculation of the tumor cells and thereafter, various enhancer chemicals in physiological saline solutions were administered intrapenitoneally to the mouse every other day in the indicated doses for respective agents. The pharmaceutical agents of the present invention were administered 30 minutes after administration of the anti-tumor agents. After commencement of the treatment with pharmaceutical agents, the tumor sizes were measured every other day and compared with the control group.
# Acute toxicity test = settings: mouse, in vivo, ip, ICR mice, male, one week; estimated
# Procedure: A quantity of 3'-dGuo was administered intraperitoneally to ICR mice (male, 8-weeks old, 10 mice for each group) in a dose of 500 mg/kg or 1,000 mg/kg, and the mice were subjected to observation for a week.
# [6] = test system: potentially lethal damage repair; assay: PLDR-inhibiting / radiosensitizing activity (general statements)
# [7] = Irradiation 1500 rad + 3'-dGuo 2.0 mg/mouse, irradiation alone 0%
# [8] = Irradiation 1500 rad + 3'-dGuo 2.0 mg/mouse, irradiation alone 0/10
smiles,measurement,setting,value
"Nc1nc2c(ncn2[C@@H]2O[C@H](CO)C[C@H]2O)c(=O)[nH]1 [3'-dGuo, 3'-deoxyguanosine]",viability at 7 h,[1]; 3'-dGuo 10 μg/ml,50%
same,viability at 7 h,[1]; 3'-dGuo 20 μg/ml,47%
same,viability at 7 h,[1]; 3'-dGuo 40 μg/ml,45%
same,Plating efficiency after 4 hours,"[2]; 3'-dGuo 10 μg/ml after 1,000 R",1.6%
same,Plating efficiency after 7 hours,"[2]; 3'-dGuo 10 μg/ml after 1,000 R",2.6%
same,Plating efficiency after 1 hour,"[2]; 3'-dGuo 10 μg/ml after 1,000 R, control (0 μg/ml) 1.4",1.3%
same,Plating efficiency after 1 hour,"[2]; 3'-dGuo 20 μg/ml after 1,000 R, control 1.4",1.2%
same,Plating efficiency after 4 hours,"[2]; 3'-dGuo 20 μg/ml after 1,000 R",1.3%
same,Plating efficiency after 7 hours,"[2]; 3'-dGuo 20 μg/ml after 1,000 R",2.0%
same,Plating efficiency after 1 hour,"[2]; 3'-dGuo 40 μg/ml after 1,000 R, control 1.4",0.96%
same,Plating efficiency after 4 hours,"[2]; 3'-dGuo 40 μg/ml after 1,000 R",1.1%
same,Plating efficiency after 7 hours,"[2]; 3'-dGuo 40 μg/ml after 1,000 R",1.6%
same,Inhibition of repair (PLDR) after irradiation with X-rays,"[2]; HA-1 cells, Table 1",found to inhibit repair (PLDR) after irradiation with X-rays
same,Toxicity as examined by plating efficiencies,"[2]; HA-1 cells, Table 1",Substantially no toxicity was observed
same,Mean tumor diameter 2 weeks after treatment,"EMT-6 tumors [3]; 3'-dGuo 100 mg/kg i.p. after 1500 rad, n = 19, baseline 6.19 ± 0.16 mm, irradiation alone 7.41",6.82 ± 0.44 mm
same,Mean tumor diameter 3 weeks after treatment,"EMT-6 tumors [3]; 3'-dGuo 100 mg/kg i.p. after 1500 rad, n = 19, baseline 6.19 ± 0.16 mm, irradiation alone 8.29",4.83 ± 0.80 mm
same,Diameter ratio 2 weeks after treatment,"EMT-6 tumors [3]; 3'-dGuo 100 mg/kg i.p. after 1500 rad, n = 19, irradiation alone 1.09",1.09 ± 0.06
same,Diameter ratio 3 weeks after treatment,"EMT-6 tumors [3]; 3'-dGuo 100 mg/kg i.p. after 1500 rad, n = 19, irradiation alone 1.17",0.72 ± 0.12
same,Volume ratio 2 weeks after treatment,"EMT-6 tumors [3]; 3'-dGuo 100 mg/kg i.p. after 1500 rad, n = 19, irradiation alone 1.44",1.49 ± 0.19
same,Volume ratio 3 weeks after treatment,"EMT-6 tumors [3]; 3'-dGuo 100 mg/kg i.p. after 1500 rad, n = 19, irradiation alone 2.06",0.92 ± 0.21
same,Cure (number of mice),"EMT-6 tumors [3]; Irradiation 1500 rad + 3'-dGuo 2.0 mg/mouse, 28 days, irradiation alone 1/10",6/19
same,Cure (percent),"EMT-6 tumors [3]; Irradiation 1500 rad + 3'-dGuo 2.0 mg/mouse, 28 days, irradiation alone 10%",32%
same,0.5 to less than 1 of volume ratio excluding cure; Tumor regression rate: slow (percent),EMT-6 tumors [3]; [7],18%
same,Less than 0.5 of volume ratio excluding cure; Tumor regression rate: rapid (percent),EMT-6 tumors [3]; [7],11%
same,0.5 to less than 1 of volume ratio excluding cure; Tumor regression rate: slow (number),EMT-6 tumors [3]; [8],3/19
same,Less than 0.5 of volume ratio excluding cure; Tumor regression rate: rapid (number),EMT-6 tumors [3]; [8],2/19
same,1.0 to less than 2.0 of volume ratio excluding cure; regrowth: slow (number),"EMT-6 tumors [3]; Irradiation 1500 rad + 3'-dGuo 2.0 mg/mouse, irradiation alone 3/10",6/19
same,2.0 or more of volume ratio excluding cure; regrowth: rapid (number),"EMT-6 tumors [3]; Irradiation 1500 rad + 3'-dGuo 2.0 mg/mouse, irradiation alone 6/10",2/19
same,1.0 to less than 2.0 of volume ratio excluding cure; regrowth: slow (percent),"EMT-6 tumors [3]; Irradiation 1500 rad + 3'-dGuo 2.0 mg/mouse, irradiation alone 30%",32%
same,2.0 or more of volume ratio excluding cure; regrowth: rapid (percent),"EMT-6 tumors [3]; Irradiation 1500 rad + 3'-dGuo 2.0 mg/mouse, irradiation alone 60%",11%
same,TCD50 (50% Tumor control dose),"EMT-6 tumors [4]; radiation doses given in rad, control 2400",1250 rad
same,TCD50 ratio,EMT-6 tumors [4]; relative to control 1.0,0.52
same,Cure number/Number treated,"EMT-6 tumors [4]; 1,000 rad, control 1/23",8/26
same,Cure percentage,"EMT-6 tumors [4]; 1,000 rad, control 4%",31%
same,Cure number/Number treated,"EMT-6 tumors [4]; 1,500 rad, control 8/44",21/29
same,Cure percentage,"EMT-6 tumors [4]; 1,500 rad, control 18%",72%
same,Cure number/Number treated,"EMT-6 tumors [4]; 2,100 rad, control 9/24",22/28
same,Cure percentage,"EMT-6 tumors [4]; 2,100 rad, control 38%",79%
same,Cure number/Number treated,"EMT-6 tumors [4]; 2,700 rad, control 13/28",22/25
same,Cure percentage,"EMT-6 tumors [4]; 2,700 rad, control 47%",88%
same,Mean tumor diameter 18 days after commencement of treatment,"EMT-6 tumors [5]; 3'-dGuo alone 50 mg/kg × 6, n = 10, before treatment 6.75 ± 1.20, control 11.43 ± 2.30",10.92 ± 3.23 mm
same,Mean tumor diameter ratio 18 days after commencement of treatment,"EMT-6 tumors [5]; 3'-dGuo alone 50 mg/kg × 6, n = 10, control 1.97 ± 0.40",1.62 ± 0.48
same,Mean tumor diameter 7 days after commencement of treatment,"EMT-6 tumors [5]; 3'-dGuo alone 50 mg/kg × 8, n = 6, before treatment 6.08 ± 0.69, control 7.38 ± 0.69",7.45 ± 2.07 mm
same,Mean tumor diameter 14 days after commencement of treatment,"EMT-6 tumors [5]; 3'-dGuo alone 50 mg/kg × 8, n = 6, before treatment 6.08 ± 0.69, control 9.20 ± 1.78",9.10 ± 2.65 mm
same,Mean tumor diameter ratio 7 days after commencement of treatment,"EMT-6 tumors [5]; 3'-dGuo alone 50 mg/kg × 8, n = 6, control 1.27 ± 0.17",1.21 ± 0.24
same,Mean tumor diameter ratio 14 days after commencement of treatment,"EMT-6 tumors [5]; 3'-dGuo alone 50 mg/kg × 8, n = 6, control 1.57 ± 0.40",1.48 ± 0.30
same,Mean tumor diameter 7 days after commencement of treatment,"EMT-6 tumors [5]; ACNU 25 mg/kg × 5 combined with 3'-dGuo 50 mg/kg × 5, n = 7, before treatment 6.23 ± 1.04, control 7.38",5.14 ± 2.29 mm
same,Mean tumor diameter 14 days after commencement of treatment,"EMT-6 tumors [5]; ACNU 25 mg/kg × 5 combined with 3'-dGuo 50 mg/kg × 5, n = 7, before treatment 6.23 ± 1.04, control 9.20",4.90 ± 1.94 mm
same,Mean tumor diameter ratio 7 days after commencement of treatment,"EMT-6 tumors [5]; ACNU 25 mg/kg × 5 combined with 3'-dGuo 50 mg/kg × 5, n = 7, control 1.27",0.80 ± 0.22
same,Mean tumor diameter ratio 14 days after commencement of treatment,"EMT-6 tumors [5]; ACNU 25 mg/kg × 5 combined with 3'-dGuo 50 mg/kg × 5, n = 7, control 1.57",0.76 ± 0.19
same,Mean tumor diameter 7 days after commencement of treatment,"EMT-6 tumors [5]; ADM 2 mg/kg × 8 combined with 3'-dGuo 50 mg/kg × 8, n = 10, before treatment 6.59 ± 1.14, control 7.38",6.16 ± 2.00 mm
same,Mean tumor diameter 14 days after commencement of treatment,"EMT-6 tumors [5]; ADM 2 mg/kg × 8 combined with 3'-dGuo 50 mg/kg × 8, n = 10, before treatment 6.59 ± 1.14, control 9.20",6.30 ± 2.54 mm
same,Mean tumor diameter ratio 7 days after commencement of treatment,"EMT-6 tumors [5]; ADM 2 mg/kg × 8 combined with 3'-dGuo 50 mg/kg × 8, n = 10, control 1.27",0.92 ± 0.18
same,Mean tumor diameter ratio 14 days after commencement of treatment,"EMT-6 tumors [5]; ADM 2 mg/kg × 8 combined with 3'-dGuo 50 mg/kg × 8, n = 10, control 1.57",0.94 ± 0.31
same,Mean tumor diameter 18 days after commencement of treatment,"EMT-6 tumors [5]; BLM 25 mg/kg × 4 combined with 3'-dGuo 50 mg/kg × 4, n = 10, before treatment 6.65 ± 0.96, control 11.43",5.60 ± 1.67 mm
same,Mean tumor diameter ratio 18 days after commencement of treatment,"EMT-6 tumors [5]; BLM 25 mg/kg × 4 combined with 3'-dGuo 50 mg/kg × 4, n = 10, control 1.97",0.84 ± 0.25
same,Mean tumor diameter 18 days after commencement of treatment,"EMT-6 tumors [5]; FT-207 100 mg/kg × 6 combined with 3'-dGuo 50 mg/kg × 6, n = 11, before treatment 6.39 ± 0.94, control 11.43",3.18 ± 2.38 mm
same,Mean tumor diameter ratio 18 days after commencement of treatment,"EMT-6 tumors [5]; FT-207 100 mg/kg × 6 combined with 3'-dGuo 50 mg/kg × 6, n = 11, control 1.97",0.50 ± 0.37
same,Mean tumor diameter 7 days after commencement of treatment,"EMT-6 tumors [5]; araC 50 mg/kg × 8 combined with 3'-dGuo 50 mg/kg × 8, n = 7, before treatment 6.04 ± 0.64, control 7.38",5.96 ± 1.77 mm
same,Mean tumor diameter 14 days after commencement of treatment,"EMT-6 tumors [5]; araC 50 mg/kg × 8 combined with 3'-dGuo 50 mg/kg × 8, n = 7, before treatment 6.04 ± 0.64, control 9.20",5.34 ± 1.57 mm
same,Mean tumor diameter ratio 7 days after commencement of treatment,"EMT-6 tumors [5]; araC 50 mg/kg × 8 combined with 3'-dGuo 50 mg/kg × 8, n = 7, control 1.27",0.97 ± 0.19
same,Mean tumor diameter ratio 14 days after commencement of treatment,"EMT-6 tumors [5]; araC 50 mg/kg × 8 combined with 3'-dGuo 50 mg/kg × 8, n = 7, control 1.57",0.88 ± 0.21
same,LD50 at 168 h,Acute toxicity test,> 1000 mg/kg
same,Radiosensitizing activity,[6],excellent radiosensitizing activities
